Measured values reported in PubChem BioAssay (NCI).
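Each compound was tested at five concentrations against cells in 96-well plates for 48 hours. TGI marks complete inhibition of growth.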 Where a SMILES comes first, the peptide text is derived from it. The star is where a group is joined. Boc = CC(C)(C)OC(=O)*

Assays:
Experiment in all cases: inhibition of tumour cell growth, NCI panel, 48 h
HCC-2998 colon = system: HCC-2998 colon
IGROV1 ovarian = system: IGROV1 ovarian
KM12 colon = system: KM12 colon
RPMI-8226 leukemia = system: RPMI-8226 leukemia
NCI-H522 lung = system: NCI-H522 lung
LOX IMVI melanoma = system: LOX IMVI melanoma
TK-10 renal = system: TK-10 renal
OVCAR-8 ovarian = system: OVCAR-8 ovarian
T-47D breast = system: T-47D breast
HOP-92 NSCLC = system: HOP-92 NSCLC
OVCAR-4 ovarian = system: OVCAR-4 ovarian
MCF7 breast = system: MCF7 breast
A549 NSCLC = system: A549 NSCLC
SNB-75 CNS = system: SNB-75 CNS
HT29 colon = system: HT29 colon
786-0 renal = system: 786-0 renal
SK-MEL-5 melanoma = system: SK-MEL-5 melanoma
UO-31 renal = system: UO-31 renal

SMILES | TGI (HCC-2998 colon) [µM] | TGI (IGROV1 ovarian) [µM] | TGI (KM12 colon) [µM] | TGI (RPMI-8226 leukemia) [µM] | TGI (NCI-H522 lung) [µM] | TGI (LOX IMVI melanoma) [µM] | TGI (TK-10 renal) [µM] | TGI (OVCAR-8 ovarian) [µM] | TGI (T-47D breast) [µM] | TGI (HOP-92 NSCLC) [µM] | TGI (OVCAR-4 ovarian) [µM] | TGI (MCF7 breast) [µM] | TGI (A549 NSCLC) [µM] | TGI (SNB-75 CNS) [µM] | TGI (HT29 colon) [µM] | TGI (786-0 renal) [µM] | TGI (SK-MEL-5 melanoma) [µM] | TGI (UO-31 renal) [µM]
CCCCCCCCCC(=O)NCCc1c[nH]c2ccc(OC)cc12 | 36.1 | 30 | > 100 | 67 | 32.1 | 27.6 | 35.1 | 32 | 54 | 31.3 | > 100 | 33.7 | 40.1 | 44 | > 100 | 38.7 | 34.3 | 26.1
CCCCC(O)(c1ccccc1)C(O)(c1ccccc1)c1c(F)c(F)c(F)c(F)c1F (stereo unspecified) | 31 | > 100 | – | 45.6 | – | – | 84.8 | 55.5 | > 100 | 44.8 | > 100 | 53.1 | > 100 | > 100 | 32.3 | 39.4 | 35.5 | 88.4
O=C(O)C1CC(C2CCCCN2)CN2CCCCC12 (stereo unspecified) | > 100 | > 100 | > 100 | > 100 | – | > 100 | > 100 | > 100 | > 100 | > 100 | > 100 | > 100 | > 100 | > 100 | > 100 | > 100 | > 100 | > 100
CC(NC(=O)C1CCCN1C(=O)CNC(=O)OC(C)(C)C)C(=O)O (stereo not drawn) (Boc-Gly-Pro-Ala-OH; configuration not given here) | > 100 | > 100 | > 100 | > 100 | > 100 | – | > 100 | > 100 | > 100 | > 100 | – | > 100 | > 100 | > 100 | > 100 | > 100 | > 100 | > 100
Cc1n[nH]c(=O)n1Nc1ccccc1 | > 100 | > 100 | > 100 | > 100 | > 100 | > 100 | – | > 100 | > 100 | > 100 | > 100 | > 100 | > 100 | > 100 | > 100 | > 100 | > 100 | > 100
O=C(c1cc(Cl)cc(Cl)c1)N(Cc1cccnc1)C(=S)N(Cc1cccnc1)C(=O)c1cc(Cl)cc(Cl)c1 | 49.6 | – | > 100 | > 100 | 49 | > 100 | 89.6 | 79.5 | > 100 | > 100 | 89.6 | > 100 | > 100 | > 100 | > 100 | 73.8 | 76 | 56.2
COc1ccc(N=C(CS(=O)c2ccc(C)cc2)C(F)(F)F)cc1 (stereo unspecified) | > 100 | > 100 | > 100 | – | > 100 | > 100 | > 100 | > 100 | > 100 | > 100 | > 100 | > 100 | > 100 | > 100 | > 100 | > 100 | > 100 | > 100
CC(=O)Nc1ncc2c(n1)-c1ccccc1OC2c1ccccc1 (stereo unspecified) | – | > 100 | > 100 | > 100 | > 100 | > 100 | 63.2 | 66.2 | 68.4 | 41.4 | 85.5 | > 100 | > 100 | 40.5 | > 100 | 38.2 | > 100 | > 100
COc1ccc(C[n+]2cccc(O)c2)cc1 | > 100 | > 100 | > 100 | – | – | – | > 100 | > 100 | > 100 | > 100 | – | > 100 | > 100 | – | > 100 | > 100 | > 100 | > 100
CCCCCCc1cc2cc(C(=O)NCc3ccccc3)c(=N)oc2cc1O | > 100 | > 100 | > 100 | > 100 | > 100 | > 100 | – | > 100 | > 100 | > 100 | > 100 | > 100 | > 100 | > 100 | > 100 | > 100 | > 100 | –
CC(=O)c1cc(CC2Cc3cc4c(cc3C2=O)CCC4)cc2c1CCC2 (stereo unspecified) | > 100 | > 100 | > 100 | 69.2 | > 100 | > 100 | > 100 | > 100 | > 100 | – | > 100 | > 100 | > 100 | > 100 | > 100 | > 100 | 61.2 | > 100
C=C1C2C[C@@H]3O[C@H]4C[C@H]5O[C@@]6(C[C@@H]7O[C@]8(C[C@H](C)[C@@H]9O[C@@H]%10CC(C=O)O[C@@H]%10C[C@@H]9O8)C[C@H](C)[C@@H]7O6)C[C@H]5O[C@H]4[C@H](C)[C@H]3OC(=O)C[C@H]3CC[C@@H]4OC5[C@H]6O[C@]7(CC[C@H]8CC(=C)[C@H](CC[C@@H](C[C@H]1C)O2)O8)CC6O[C@@H]5[C@@H](O7)[C@H]4O3 (stereo partly specified) | > 1 | > 1 | – | 0.000326 | < 0.0001 | – | > 1 | – | > 1 | > 0.42 | > 1 | > 1 | > 1 | > 1 | – | 0.971 | > 1 | > 1
O=[N+]([O-])c1cnc(N(CCO)CCO)s1 | > 100 | > 100 | > 100 | – | > 100 | > 100 | – | > 100 | > 100 | > 100 | > 100 | > 100 | > 100 | 0.341 | > 100 | > 100 | > 100 | > 100
N#CC(NNC(=O)c1c(Cl)c(Cl)c(Cl)c(Cl)c1-c1nc2ccc(C(=O)c3ccccc3)cc2[nH]1)c1ccccc1 (stereo unspecified) | – | > 100 | > 100 | 24.9 | 18 | 87.9 | 90.8 | > 100 | 98.8 | > 100 | > 100 | 12.7 | > 100 | 27.8 | > 100 | 42.9 | 13.3 | > 100
CCOC(=O)c1cc(C2=CCNC2=O)c(-c2cc(C)no2)[nH]1 | > 100 | > 100 | > 100 | > 100 | 46.6 | > 100 | > 100 | > 100 | > 100 | – | > 100 | > 100 | > 100 | > 100 | > 100 | > 100 | > 100 | > 100
Cc1cn(CC2=NC3CCCCC3N2)c(=O)[nH]c1=O (stereo unspecified) | > 100 | > 100 | – | > 100 | > 100 | > 100 | > 100 | > 100 | > 100 | > 100 | – | > 100 | > 100 | > 100 | > 100 | > 100 | > 100 | > 100
COC(O)C(=O)c1c2c(cc3c1CCC3)CCC2 (stereo unspecified) | > 100 | > 100 | > 100 | > 100 | > 100 | > 100 | > 100 | > 100 | > 100 | – | > 100 | > 100 | > 100 | > 100 | > 100 | > 100 | > 100 | > 100
Cc1nn(C(=O)c2ccc(Cl)cc2)c2c1C(c1ccccc1O)SC(N)=N2 (stereo unspecified) | > 10 | > 10 | > 10 | > 10 | > 10 | > 10 | > 10 | > 10 | > 10 | > 10 | > 10 | > 10 | > 10 | > 10 | > 10 | > 10 | > 10 | –
Cc1ccc(S(=O)(=O)NN=C2C(C)(C)CC2(C)C)cc1 | > 100 | > 100 | > 100 | – | > 100 | > 100 | > 100 | > 100 | > 100 | > 100 | > 100 | > 100 | > 100 | > 100 | > 100 | > 100 | > 100 | > 100
COc1ccc(-c2[nH]c(-c3ccc(OC)cc3)c(-c3ccccn3)c2-c2ccccn2)cc1 | 46.3 | > 100 | > 100 | 69.5 | – | 65.5 | > 100 | > 100 | > 100 | > 100 | – | > 100 | > 100 | > 100 | 49.3 | > 100 | 32.2 | > 100
Cc1c2oc3c(C)cnc(C(=O)NC4C(=O)NC(C(C)C)C(=O)N5CCCC5C(=O)N(C)CC(=O)N(C)C(C(C)C)C(=O)OC4C)c3nc-2c(C(=O)NC2C(=O)NC(C(C)C)C(=O)N3CCCC3C(=O)N(C)CC(=O)N(C)C(C(C)C)C(=O)OC2C)c(N)c1=O (stereo unspecified) | 15.7 | > 75 | 61.1 | – | 18 | 10.3 | > 75 | > 44.5 | > 53.4 | 36 | 73.5 | > 75 | > 75 | 21.3 | > 75 | > 75 | 21.6 | 51
CN1C(=O)N/C(=C\c2ccc(S(=O)(=O)N/N=C/c3ccccc3)cc2)C1=O | > 100 | > 100 | 82.1 | > 100 | – | > 100 | > 100 | > 100 | > 100 | 75.5 | > 100 | 68.5 | > 100 | > 100 | > 100 | > 100 | 27.7 | > 100
Cc1ccc(NC(=O)CC(=O)N2N=C(N3CCCCC3)CC2c2ccccc2)cc1 (stereo unspecified) | > 100 | > 100 | > 100 | – | > 100 | > 100 | > 100 | > 100 | > 100 | > 100 | > 100 | > 100 | > 100 | > 100 | > 100 | > 100 | > 100 | > 100
N#CC(c1ccccc1)N(CCc1ccccc1)C(=O)c1ccc(C(=O)N(CCc2ccccc2)C(C#N)c2ccccc2)cc1 (stereo unspecified) | 29.1 | 57 | > 100 | – | – | 37 | 29.8 | 34.6 | 61.3 | 28.1 | 64 | > 100 | > 100 | 45.8 | 38.6 | 56.5 | 27.2 | 63.8
Cc1cc(O)c2c(c1)C(C1OC(CO)C(O)C(O)C1O)c1cc(O)cc(O)c1C2=O (stereo unspecified) | > 100 | > 100 | – | > 100 | – | – | > 100 | > 100 | > 100 | > 100 | > 100 | > 100 | > 100 | > 100 | > 100 | > 100 | > 100 | > 100
Cc1cccc2c(N)c3cccc(C(=O)NCC[N+](C)(C)Cc4ccc(S(C)(=O)=O)cc4)c3nc12 | > 100 | > 100 | > 100 | > 45.4 | – | > 100 | > 100 | > 100 | > 100 | > 100 | > 100 | > 100 | > 100 | > 100 | > 100 | > 100 | > 100 | > 100
